From patent US11931424B2, “Combination MCL-1 inhibitors with anti-body drug conjugates” (Gilead Sciences, Inc., priority 2021, dated 2024)

Test system: panel of breast cancer cell lines
Assay: Compound A with targeted agents and chemotherapies, 72-hour in vitro proliferation assays
Assay type: cell-based
Conditions: 72-hour proliferation
[1] = AU565 cell line, compound A × partner
[2] = BT-20 cell line, compound A × partner
[3] = BT-474 cell line, compound A × partner
[4] = BT-549 cell line, compound A × partner
[5] = CAL-51 cell line, compound A × partner
[6] = CAL-85-1 cell line, compound A × partner
[7] = CAL-120 cell line, compound A × partner
[8] = CAL-148 cell line, compound A × partner
[9] = CAMA-1 cell line, compound A × partner
[10] = DU-4475 cell line, compound A × partner
[11] = EVSA-T cell line, compound A × partner
[12] = MCF7 cells, Compound A × partner agent
[13] = MDA-MB-175-VII cells, Compound A × partner agent
[14] = MDA-MB-231 cells, Compound A × partner agent
[15] = MDA-MB-361 cells, Compound A × partner agent
[16] = MDA-MB-436 cells, Compound A × partner agent
[17] = MDA-MB-453 cells, Compound A × partner agent
[18] = MDA-MB-468 cells, Compound A × partner agent
[19] = SK-BR-3 cells, Compound A × partner agent
[20] = SUM159PT cells, combination of compound A with the named agent
[21] = T47D cells, combination of compound A with the named agent
[22] = ZR-75-1 cells, combination of compound A with the named agent
[23] = ZR-75-30 cells, combination of compound A with the named agent

## C[C@]12CC[C@@H]3c4ccc(O)cc4C[C@@H](CCCCCCCCC[S+]([O-])CCCC(F)(F)C(F)(F)F)[C@H]3[C@@H]1CC[C@@H]2O (stereo partly shown) [Fulvestrant]
[1]
  Bliss Volume: 6.82
  HSA volume: 2.40
  Loewe Volume: 4.57
  Synergy Score: 3.43
[2]
  Bliss Volume: 3.55
  HSA volume: 3.62
  Loewe Volume: 3.44
  Synergy Score: 8.19
[3]
  Bliss Volume: 2.68
  HSA volume: 1.47
  Loewe Volume: 1.42
  Synergy Score: 6.48
[4]
  Bliss Volume: 3.56
  HSA volume: 7.74
  Loewe Volume: 7.73
  Synergy Score: 6.08
[5]
  Bliss Volume: 0.71
  HSA volume: −1.89
  Loewe Volume: 0.82
  Synergy Score: 0.47
[6]
  Bliss Volume: −4.57
  HSA volume: −0.20
  Loewe Volume: −0.68
  Synergy Score: 2.63
[7]
  Bliss Volume: −4.96
  HSA volume: −4.48
  Loewe Volume: −4.09
  Synergy Score: 0.28
[8]
  Bliss Volume: −1.80
  HSA volume: −2.13
  Loewe Volume: −0.78
  Synergy Score: 4.58
[9]
  Bliss Volume: 4.38
  HSA volume: −0.63
  Loewe Volume: −0.83
  Synergy Score: 2.09
[10]
  Bliss Volume: 4.93
  HSA volume: 0.13
  Loewe Volume: 4.51
  Synergy Score: 2.58
[11]
  Bliss Volume: 6.75
  HSA volume: 1.08
  Loewe Volume: 1.59
  Synergy Score: 3.72
HCC38, compound A × partner
  Bliss Volume: −3.19
  HSA volume: −1.37
  Loewe Volume: −1.82
  Synergy Score: 2.63
HCC70, compound A × partner
  Bliss Volume: 10.34
  HSA volume: 9.70
  Loewe Volume: 10.67
  Synergy Score: 17.18
HCC1143, compound A × partner
  Bliss Volume: 0.82
  HSA volume: −4.16
  Loewe Volume: 0.02
  Synergy Score: 2.79
HCC1569, compound A × partner
  Bliss Volume: 3.84
  HSA volume: 4.70
  Loewe Volume: 5.59
  Synergy Score: 5.92
HCC1806, compound A × partner
  Bliss Volume: −0.20
  HSA volume: −0.86
  Loewe Volume: 1.90
  Synergy Score: 2.60
HCC1937, compound A × partner
  Bliss Volume: 2.31
  HSA volume: −0.65
  Loewe Volume: 2.38
  Synergy Score: 2.38
HCC1954, compound A × partner
  Bliss Volume: 11.35
  HSA volume: 12.18
  Loewe Volume: 11.84
  Synergy Score: 16.73
HCC2218, compound A × partner
  Bliss Volume: 1.16
  HSA volume: 1.89
  Loewe Volume: −1.02
  Synergy Score: 3.85
HDQ-P1, compound A × partner
  Bliss Volume: −5.92
  HSA volume: −6.15
  Loewe Volume: −5.56
  Synergy Score: 0.42
HMC-1-8, compound A × partner
  Bliss Volume: 10.58
  HSA volume: 7.21
  Loewe Volume: 7.81
  Synergy Score: 13.30
JIMT-1, compound A × partner
  Bliss Volume: 5.80
  HSA volume: 0.54
  Loewe Volume: 4.52
  Synergy Score: 1.26
KPL-1, compound A × partner
  Bliss Volume: 0.30
  HSA volume: 1.12
  Loewe Volume: 1.04
  Synergy Score: 2.75
[12]
  Bliss Volume: 11.46
  HSA volume: 11.54
  Loewe Volume: 11.41
[13]
  Bliss Volume: 11.56
  HSA volume: 1.65
  Loewe Volume: 10.58
  Synergy Score: 7.62
[14]
  Bliss Volume: 1.26
  HSA volume: −0.76
  Loewe Volume: 1.50
  Synergy Score: 1.17
[15]
  Bliss Volume: −3.29
  HSA volume: −1.23
  Loewe Volume: −0.47
  Synergy Score: 3.34
[16]
  Bliss Volume: 1.52
  HSA volume: 2.87
  Loewe Volume: 2.94
  Synergy Score: 3.30
[17]
  Bliss Volume: −0.77
  HSA volume: −3.96
  Loewe Volume: −1.85
  Synergy Score: 4.79
[18]
  Bliss Volume: 6.94
  HSA volume: 6.17
  Loewe Volume: 7.22
[19]
  Bliss Volume: −2.14
  HSA volume: −3.78
  Loewe Volume: −2.67
  Synergy Score: 2.05
[20]
  Bliss Volume: 2.51
  HSA volume: 0.14
  Loewe Volume: 2.16
  Synergy Score: 1.23
[21]
  Bliss Volume: 0.17
  HSA volume: 2.12
  Loewe Volume: 3.30
  Synergy Score: 4.16
[22]
  Bliss Volume: 5.80
  HSA volume: 4.00
  Loewe Volume: 6.17
  Synergy Score: 4.22
[23]
  Bliss Volume: 1.91
  HSA volume: 1.18
  Loewe Volume: 1.80
  Synergy Score: 4.50

## CC(C)NC[C@@H](C(=O)N1CCN(c2ncnc3c2[C@H](C)C[C@H]3O)CC1)c1ccc(Cl)cc1 [GDC-0068]
[1]
  Best CI: 0.88
  Bliss Volume: 5.42
  HSA volume: 2.46
  Loewe Volume: 1.85
  Synergy Score: 6.93
[2]
  Best CI: 0.15
  Bliss Volume: 14.37
  HSA volume: 13.36
  Loewe Volume: 11.91
  Synergy Score: 26.99
[5]
  Best CI: 0.66
  Bliss Volume: 1.90
  HSA volume: 2.22
  Loewe Volume: 2.48
  Synergy Score: 1.93
[6]
  Best CI: 0.22
  Bliss Volume: −1.63
  HSA volume: 2.26
  Loewe Volume: 1.63
  Synergy Score: 4.37
[7]
  Best CI: 0.04
  Bliss Volume: −1.18
  HSA volume: −0.50
  Loewe Volume: 0.09
  Synergy Score: 1.05
[8]
  Best CI: 0.20
  Bliss Volume: 15.98
  HSA volume: 11.23
  Loewe Volume: 11.35
  Synergy Score: 22.09
[9]
  Best CI: 0.11
  Bliss Volume: 26.60
  HSA volume: 14.33
  Loewe Volume: 13.52
  Synergy Score: 27.46
[10]
  Bliss Volume: −5.18
  HSA volume: −7.77
  Loewe Volume: −5.05
  Synergy Score: 0.20
[11]
  Best CI: 0.27
  Bliss Volume: 38.10
  HSA volume: 10.77
  Loewe Volume: 8.56
  Synergy Score: 18.16
HCC38, compound A × partner
  Best CI: 1.04
  Bliss Volume: 3.63
  HSA volume: 6.49
  Loewe Volume: 5.61
  Synergy Score: 5.92
HCC70, compound A × partner
  Best CI: 0.30
  Bliss Volume: 19.29
  HSA volume: 14.42
  Loewe Volume: 13.10
  Synergy Score: 27.63
HCC1143, compound A × partner
  Best CI: 0.56
  Bliss Volume: 1.41
  HSA volume: −1.97
  Loewe Volume: 1.22
  Synergy Score: 3.73
HCC1569, compound A × partner
  Best CI: 0.24
  Bliss Volume: 9.34
  HSA volume: 10.52
  Loewe Volume: 10.52
  Synergy Score: 15.41
HCC1806, compound A × partner
  Best CI: 0.83
  Bliss Volume: 4.78
  HSA volume: −2.22
  Loewe Volume: 2.14
  Synergy Score: 2.21
HCC1937, compound A × partner
  Best CI: 0.44
  Bliss Volume: 8.88
  HSA volume: 6.08
  Loewe Volume: 8.48
  Synergy Score: 6.18
HCC1954, compound A × partner
  Best CI: 0.16
  Bliss Volume: 19.16
  HSA volume: 18.41
  Loewe Volume: 17.07
  Synergy Score: 33.91
HCC2218, compound A × partner
  Best CI: 0.13
  Bliss Volume: 10.70
  HSA volume: 8.89
  Loewe Volume: 7.71
  Synergy Score: 22.09
HDQ-P1, compound A × partner
  Best CI: 1.46
  Bliss Volume: −1.34
  HSA volume: −1.27
  Loewe Volume: −2.21
  Synergy Score: 1.94
HMC-1-8, compound A × partner
  Best CI: 0.26
  Bliss Volume: 17.75
  HSA volume: 12.01
  Loewe Volume: 12.08
  Synergy Score: 21.76
JIMT-1, compound A × partner
  Best CI: 0.26
  Bliss Volume: 2.76
  HSA volume: 1.18
  Loewe Volume: 1.53
  Synergy Score: 1.19
KPL-1, compound A × partner
  Synergy Score: 10.58
